Reference: US10010541B2, “Modulation of tissue transglutaminase activation in disease” (The Board of Trustees of the Leland Stanford Junior …, priority 2014, dated 2018)

Assays:
[1] = biological target: T1, TG2 (Mus musculus, UniProt P21981); experiment: TG2 activity (5-BP probe) in tissues of LPS-induced septic mice; type: in vivo; conditions: septic mice (LPS 5 mg/kg iv); 50 mg/kg intraperitoneally
T1 construct: host or cells: mice (in vivo)
T1 sequence (P21981 1-686): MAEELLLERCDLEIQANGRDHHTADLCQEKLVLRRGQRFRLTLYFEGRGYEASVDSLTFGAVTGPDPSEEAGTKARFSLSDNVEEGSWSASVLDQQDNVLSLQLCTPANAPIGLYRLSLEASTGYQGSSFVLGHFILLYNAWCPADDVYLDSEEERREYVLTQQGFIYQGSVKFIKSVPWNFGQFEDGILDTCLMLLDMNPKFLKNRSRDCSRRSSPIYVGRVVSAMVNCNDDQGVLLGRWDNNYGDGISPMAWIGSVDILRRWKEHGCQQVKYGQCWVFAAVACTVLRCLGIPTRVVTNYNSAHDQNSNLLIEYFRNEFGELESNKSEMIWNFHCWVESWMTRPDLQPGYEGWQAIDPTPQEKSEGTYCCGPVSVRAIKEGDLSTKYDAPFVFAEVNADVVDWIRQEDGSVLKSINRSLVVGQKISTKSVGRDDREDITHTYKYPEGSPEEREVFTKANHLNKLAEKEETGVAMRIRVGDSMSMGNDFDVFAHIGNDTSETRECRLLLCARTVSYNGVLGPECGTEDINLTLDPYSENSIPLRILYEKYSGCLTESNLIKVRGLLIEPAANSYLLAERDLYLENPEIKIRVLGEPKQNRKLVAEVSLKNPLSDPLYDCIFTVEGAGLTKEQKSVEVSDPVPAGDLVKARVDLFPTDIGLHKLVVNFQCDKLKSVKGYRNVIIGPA
Protocol: FIG. 2: TG2 is active in septic mice and can be inhibited by the intraperitoneal administration of 50 mg/kg CK996: Panels (A) through (C) depict tissues from the liver, lung and small intestine from septic male BL6 mice that were stained for TG2 protein (top row) or TG2 activity (middle row). The bottom row depicts the merged images from the TG2 protein and activity channel, respectively. Tissues from mice that had received the TG2 inhibitor CK996 are shown in the right set of images in each panel whereas tissues from control mice that received vehicle only are shown in the left set of images. Panel (D) quantifies the ratio of TG2 activity to TG2 protein signal intensity. All mice in this study received lipopolysaccharide (LPS, 5 mg/kg i.v., at t=0) and the TG2 activity-based probe 5-biotinamidopentylamine (5-BP, 100 mg/kg i.p., at t=0 and 90 min)(Dafik et al., 2012; Siegel et al., 2008). One cohort of mice additionally received an intraperitoneal dose of the TG2 inhibitor CK996 (50 mg/kg i.p., at t=0 and 60 min) in vehicle (PBS with 10% DMSO and 2% 2,6-di-(OMe)-beta-cyclodextrin), whereas the control mice received the vehicle alone. At 3 hours the mice were euthanized, tissues collected and frozen in OCT medium and then TG2 protein and activity (5-BP) stained, imaged and quantified as described in the literature (Diraimondo et al., 2013 ACS Chem. Biol.). […]

[2] = biological target: T2, TG1 (Homo sapiens, UniProt P22735); experiment: glutamate dehydrogenase-coupled deamidation assay, substrate Cbz-Gln-Ser; type: biochemical; conditions: irreversible inhibition model, full progress curves
T2 sequence (P22735 1-817): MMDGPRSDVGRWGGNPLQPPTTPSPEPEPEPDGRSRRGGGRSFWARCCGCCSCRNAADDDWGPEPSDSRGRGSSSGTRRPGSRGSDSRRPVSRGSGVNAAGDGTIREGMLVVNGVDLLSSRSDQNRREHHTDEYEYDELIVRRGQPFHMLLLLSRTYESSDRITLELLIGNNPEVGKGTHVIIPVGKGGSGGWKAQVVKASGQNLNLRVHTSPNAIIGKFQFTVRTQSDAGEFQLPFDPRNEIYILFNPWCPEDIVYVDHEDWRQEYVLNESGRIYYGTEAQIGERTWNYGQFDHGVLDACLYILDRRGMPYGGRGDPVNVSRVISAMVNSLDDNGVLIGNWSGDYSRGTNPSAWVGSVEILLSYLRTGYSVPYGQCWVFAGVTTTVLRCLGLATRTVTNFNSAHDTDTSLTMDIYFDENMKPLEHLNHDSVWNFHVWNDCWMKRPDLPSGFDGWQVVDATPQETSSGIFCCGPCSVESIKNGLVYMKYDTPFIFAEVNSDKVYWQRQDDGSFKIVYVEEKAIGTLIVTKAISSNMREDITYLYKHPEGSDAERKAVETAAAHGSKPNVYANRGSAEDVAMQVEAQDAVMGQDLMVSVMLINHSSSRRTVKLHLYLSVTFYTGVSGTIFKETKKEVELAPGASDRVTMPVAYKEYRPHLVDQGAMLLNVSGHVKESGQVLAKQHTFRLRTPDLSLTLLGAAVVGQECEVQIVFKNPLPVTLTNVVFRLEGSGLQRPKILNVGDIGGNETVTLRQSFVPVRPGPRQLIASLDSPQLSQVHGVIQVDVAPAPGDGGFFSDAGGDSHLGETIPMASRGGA

[3] = biological target: T3, TG2 (Homo sapiens, UniProt P21980); experiment: glutamate dehydrogenase-coupled deamidation assay, substrate Cbz-Gln-Gly; type: biochemical; conditions: irreversible inhibition model, full progress curves
T3 sequence (P21980 1-687): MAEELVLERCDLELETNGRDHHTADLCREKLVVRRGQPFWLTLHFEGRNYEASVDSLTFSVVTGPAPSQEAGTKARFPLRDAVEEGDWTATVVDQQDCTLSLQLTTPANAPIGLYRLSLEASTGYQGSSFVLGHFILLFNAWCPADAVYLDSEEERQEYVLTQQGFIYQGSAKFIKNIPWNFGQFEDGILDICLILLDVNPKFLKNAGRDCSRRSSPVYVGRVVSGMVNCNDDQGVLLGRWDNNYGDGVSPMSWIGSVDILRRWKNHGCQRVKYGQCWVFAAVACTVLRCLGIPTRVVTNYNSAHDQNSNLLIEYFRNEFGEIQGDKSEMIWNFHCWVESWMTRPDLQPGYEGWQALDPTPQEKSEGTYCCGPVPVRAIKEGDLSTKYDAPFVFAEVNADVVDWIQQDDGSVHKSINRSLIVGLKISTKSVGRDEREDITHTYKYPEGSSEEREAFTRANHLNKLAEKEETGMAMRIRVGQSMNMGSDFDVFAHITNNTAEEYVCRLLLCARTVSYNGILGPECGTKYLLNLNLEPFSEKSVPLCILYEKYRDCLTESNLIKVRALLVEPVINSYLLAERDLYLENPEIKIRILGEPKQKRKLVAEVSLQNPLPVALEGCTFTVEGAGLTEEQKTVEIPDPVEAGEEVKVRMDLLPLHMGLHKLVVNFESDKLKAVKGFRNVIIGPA

TG2 activity in intestines, livers and lungs [1]: fully suppressed
kinh/Ki TG1 [2]: 20.0 mM⁻¹ min⁻¹
kinh/Ki TG2 [3]: 108 mM⁻¹ min⁻¹
Structure (SMILES): O=C(N[C@@H]1C[C@@H](C(=O)NC[C@@H]2CC(Br)=NO2)N(C(=O)OCc2cnc3ccccc3c2)C1)c1cccnc1 [Compound 5, (2S,4R)-quinolin-3-ylmethyl 2-((((S)-3-bromo-4,5-dihydroisoxazol-5-yl)methyl)carbamoyl)-4-(nicotinamido)pyrrolidine-1-carboxylate]
